US20180072739A1, “CO-CRYSTALS OF A BRUTON'S TYROSINE KINASE INHIBITOR” (Pharmacyclic LLC, priority 2015, published 2018)
In brackets after ≈: the same amount, converted by molar mass.

Experiment: physchem
Settings: water, 25 °C, thermodynamic from solid
Protocol: The suspension was equilibrated at 25° C. for 2 hours with aliquots sampled at 30, 60 and 120 min; the pH was measured at each time point. The suspension was then filtered through a glass fibre C filter. The filtrate was then diluted by an appropriate factor. Quantitation was by HPLC with reference to a standard solution of approximately 0.2 mg/mL in CH3CN:water. Different volumes of the standard, diluted and undiluted sample solutions were injected. […]

- solubility at 30 min: ~1640 µg/mL (≈ 3.72 mM)
- solubility at 60 min: ~1640 µg/mL (≈ 3.72 mM)
- solubility at 120 min: ~1690 µg/mL (≈ 3.84 mM)
Structure (SMILES): C=CC(=O)N1CCC[C@@H](n2nc(-c3ccc(Oc4ccccc4)cc3)c3c(N)ncnc32)C1 [Compound 1, 1-((R)-3-(4-amino-3-(4-phenoxyphenyl)-1H-pyrazolo[3,4-d]pyrimidin-1-yl)piperidin-1-yl)prop-2-en-1-one]
